Measurements published in ChEMBL document CHEMBL4715821, “Discovery of 4-ethoxy-7H-pyrrolo[2,3-d]pyrimidin-2-amines as potent, selective and orally bioavailable LRRK2 inhibitors” (Bioorg Med Chem Lett, 2018).

Assays:
[1] = biological target: Serine/threonine-protein kinase 16 (Homo sapiens) (UniProt O75716); assay: Inhibition of wild-type human partial length STK16 (G11 to I305 residues) expressed in bacterial expression system assessed as residual activity at 1 uM by Kinomescan method relative to control
Chain of Serine/threonine-protein kinase 16 (Homo sapiens) (O75716 whole entry, the tested form may be a part): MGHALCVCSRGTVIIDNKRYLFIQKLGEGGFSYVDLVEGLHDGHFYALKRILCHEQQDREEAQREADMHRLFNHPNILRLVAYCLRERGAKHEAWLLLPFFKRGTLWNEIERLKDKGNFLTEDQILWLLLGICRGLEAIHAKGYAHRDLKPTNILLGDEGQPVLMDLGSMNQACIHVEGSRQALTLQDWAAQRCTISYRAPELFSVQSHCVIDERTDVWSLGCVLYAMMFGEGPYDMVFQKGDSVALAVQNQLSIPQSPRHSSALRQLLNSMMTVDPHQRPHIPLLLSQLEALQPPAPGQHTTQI

[2] = biological target: Mitogen-activated protein kinase kinase kinase 7 (Homo sapiens) (UniProt O43318); assay: Inhibition of wild-type human partial length TAK1 (M1 to Q303 residues) expressed in mammalian expression system assessed as residual activity at 1 uM by Kinomescan method relative to control
[3] = In vivo inhibition of LRRK2 in Han-Wistar rat assessed as reduction in Ser935 phosphorylation in brain at 30 mg/kg, po by Western blot analysis; format: functional; parameters: scale not given: the % may be the effect or the level left
[4] = biological target: Mitogen-activated protein kinase 3 (Homo sapiens) (UniProt P27361); assay: Inhibition of wild-type human full length ERK1 (M1 to P379 residues) expressed in bacterial expression system assessed as residual activity at 1 uM by Kinomescan method relative to control
Chain of Mitogen-activated protein kinase 3 (Homo sapiens) (P27361 whole entry, the tested form may be a part): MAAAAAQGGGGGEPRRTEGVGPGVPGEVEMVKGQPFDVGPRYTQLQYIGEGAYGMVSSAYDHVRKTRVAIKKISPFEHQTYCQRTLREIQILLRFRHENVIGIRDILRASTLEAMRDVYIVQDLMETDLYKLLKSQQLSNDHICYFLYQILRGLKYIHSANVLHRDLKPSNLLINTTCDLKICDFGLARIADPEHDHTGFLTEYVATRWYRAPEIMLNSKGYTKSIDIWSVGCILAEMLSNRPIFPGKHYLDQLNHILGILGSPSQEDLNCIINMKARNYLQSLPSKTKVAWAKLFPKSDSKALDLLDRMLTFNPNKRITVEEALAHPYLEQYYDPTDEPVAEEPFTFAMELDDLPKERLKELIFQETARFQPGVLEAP

[5] = biological target: Ephrin type-B receptor 4 (Homo sapiens) (UniProt P54760); assay: Inhibition of wild-type human partial length EPHB4 (H585 to G892 residues) expressed in bacterial expression system assessed as residual activity at 1 uM by Kinomescan method relative to control
Chain of Ephrin type-B receptor 4 (Homo sapiens) (P54760 whole entry, the tested form may be a part): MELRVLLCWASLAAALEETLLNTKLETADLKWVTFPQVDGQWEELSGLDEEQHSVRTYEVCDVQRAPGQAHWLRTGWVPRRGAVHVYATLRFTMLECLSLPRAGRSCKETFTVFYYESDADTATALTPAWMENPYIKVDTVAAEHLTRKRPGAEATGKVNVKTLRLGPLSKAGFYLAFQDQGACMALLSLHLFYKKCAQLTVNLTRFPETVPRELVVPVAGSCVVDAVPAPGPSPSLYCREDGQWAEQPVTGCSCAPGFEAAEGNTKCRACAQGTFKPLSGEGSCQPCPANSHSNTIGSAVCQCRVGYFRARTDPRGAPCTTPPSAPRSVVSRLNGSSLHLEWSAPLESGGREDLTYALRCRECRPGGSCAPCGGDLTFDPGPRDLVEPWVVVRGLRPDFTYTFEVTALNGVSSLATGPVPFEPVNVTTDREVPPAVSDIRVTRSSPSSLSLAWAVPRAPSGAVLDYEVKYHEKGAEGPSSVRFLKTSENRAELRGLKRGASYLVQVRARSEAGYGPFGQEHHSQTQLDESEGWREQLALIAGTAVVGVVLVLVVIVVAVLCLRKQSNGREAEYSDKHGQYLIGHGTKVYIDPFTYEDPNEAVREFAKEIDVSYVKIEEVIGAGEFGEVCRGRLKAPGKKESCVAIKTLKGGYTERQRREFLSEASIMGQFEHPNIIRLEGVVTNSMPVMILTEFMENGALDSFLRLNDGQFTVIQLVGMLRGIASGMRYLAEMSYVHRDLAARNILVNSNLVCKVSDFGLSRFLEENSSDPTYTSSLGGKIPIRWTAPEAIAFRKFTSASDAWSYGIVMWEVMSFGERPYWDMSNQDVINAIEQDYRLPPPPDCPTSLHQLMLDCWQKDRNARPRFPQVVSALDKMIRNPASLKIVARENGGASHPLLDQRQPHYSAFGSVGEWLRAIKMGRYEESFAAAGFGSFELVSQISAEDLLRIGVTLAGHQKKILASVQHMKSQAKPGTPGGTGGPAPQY

[6] = biological target: Protein kinase C iota type (Homo sapiens) (UniProt P41743); assay: Inhibition of PKCiota (unknown origin) assessed as residual activity at 1 uM by Kinomescan method relative to control
[7] = biological target: Serine/threonine-protein kinase STK11 (Homo sapiens) (UniProt Q15831); assay: Inhibition of wild-type human full length LKB1 (M1 to Q433 residues) expressed in bacterial expression system assessed as residual activity at 1 uM by Kinomescan method relative to control
[8] = biological target: Tyrosine-protein kinase Fgr (Homo sapiens) (UniProt P09769); assay: Inhibition of wild-type human partial length FGR (L233 to T529 residues) expressed in bacterial expression system assessed as residual activity at 1 uM by Kinomescan method relative to control
[9] = biological target: Mitogen-activated protein kinase kinase kinase 10 (Homo sapiens) (UniProt Q02779); assay: Inhibition of wild-type human partial length MLK2 (V52 to W380 residues) expressed in bacterial expression system assessed as residual activity at 1 uM by Kinomescan method relative to control
Chain of Mitogen-activated protein kinase kinase kinase 10 (Homo sapiens) (Q02779 whole entry, looked up, the tested form may be a part): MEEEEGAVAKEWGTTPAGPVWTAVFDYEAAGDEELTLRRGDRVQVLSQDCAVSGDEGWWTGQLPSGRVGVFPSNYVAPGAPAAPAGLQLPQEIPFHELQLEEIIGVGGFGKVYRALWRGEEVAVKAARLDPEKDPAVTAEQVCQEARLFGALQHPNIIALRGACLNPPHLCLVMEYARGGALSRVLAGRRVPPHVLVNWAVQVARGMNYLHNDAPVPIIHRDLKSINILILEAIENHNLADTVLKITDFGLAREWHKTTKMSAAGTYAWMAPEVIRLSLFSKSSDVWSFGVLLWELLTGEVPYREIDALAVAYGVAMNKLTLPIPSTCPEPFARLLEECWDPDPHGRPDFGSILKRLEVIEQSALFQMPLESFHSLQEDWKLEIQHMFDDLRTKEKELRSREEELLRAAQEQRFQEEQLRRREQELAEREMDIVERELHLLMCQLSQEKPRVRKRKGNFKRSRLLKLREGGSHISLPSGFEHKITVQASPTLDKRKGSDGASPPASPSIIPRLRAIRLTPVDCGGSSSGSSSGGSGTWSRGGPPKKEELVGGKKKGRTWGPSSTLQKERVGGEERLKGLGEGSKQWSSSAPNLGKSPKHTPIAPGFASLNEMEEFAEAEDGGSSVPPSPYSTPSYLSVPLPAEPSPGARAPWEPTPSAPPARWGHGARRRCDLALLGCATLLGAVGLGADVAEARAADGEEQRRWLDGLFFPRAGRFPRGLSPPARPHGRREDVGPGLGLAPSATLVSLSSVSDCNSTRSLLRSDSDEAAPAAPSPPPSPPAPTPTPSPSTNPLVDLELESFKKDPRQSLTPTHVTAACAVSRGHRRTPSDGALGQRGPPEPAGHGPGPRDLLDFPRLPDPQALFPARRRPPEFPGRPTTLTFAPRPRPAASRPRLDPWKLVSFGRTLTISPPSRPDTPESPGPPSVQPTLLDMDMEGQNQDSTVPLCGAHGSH

[10] = biological target: Serine/threonine-protein kinase WNK2 (Homo sapiens) (UniProt Q9Y3S1); assay: Inhibition of wild-type human partial length WNK2 (V47 to D482 residues) expressed in mammalian expression system assessed as residual activity at 1 uM by Kinomescan method relative to control
[11] = biological target: Vascular endothelial growth factor receptor 3 (Homo sapiens) (UniProt P35916); assay: Inhibition of wild-type human partial length FLT4 (E821 to E1196 residues) expressed in bacterial expression system assessed as residual activity at 1 uM by Kinomescan method relative to control
[12] = biological target: cAMP-dependent protein kinase catalytic subunit PRKX (Homo sapiens) (UniProt P51817); assay: Inhibition of wild-type human partial length PRKX (M1 to F358 residues) expressed in bacterial expression system assessed as residual activity at 1 uM by Kinomescan method relative to control
Chain of cAMP-dependent protein kinase catalytic subunit PRKX (Homo sapiens) (P51817 whole entry, the tested form may be a part): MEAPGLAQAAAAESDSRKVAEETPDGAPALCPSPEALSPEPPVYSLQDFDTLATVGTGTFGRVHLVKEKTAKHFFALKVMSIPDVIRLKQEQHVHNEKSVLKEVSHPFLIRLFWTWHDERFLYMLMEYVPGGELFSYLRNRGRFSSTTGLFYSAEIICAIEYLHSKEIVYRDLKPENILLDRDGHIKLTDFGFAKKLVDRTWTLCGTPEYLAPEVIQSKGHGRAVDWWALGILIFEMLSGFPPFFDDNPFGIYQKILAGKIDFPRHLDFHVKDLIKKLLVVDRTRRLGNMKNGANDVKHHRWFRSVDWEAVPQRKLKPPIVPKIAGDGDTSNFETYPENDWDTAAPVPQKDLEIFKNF

[13] = biological target: CDK6/cyclin D1 (Homo sapiens) (UniProt P24385+Q00534); assay: Inhibition of wild-type human full length CDK6 (M1 to A326 residues)/cyclin D1 expressed in mammalian expression system assessed as residual activity at 1 uM by Kinomescan method relative to control
[14] = biological target: Maternal embryonic leucine zipper kinase (Homo sapiens) (UniProt Q14680); assay: Inhibition of wild-type human full length MELK (M1 to V651 residues) expressed in bacterial expression system assessed as residual activity at 1 uM by Kinomescan method relative to control
Chain of Maternal embryonic leucine zipper kinase (Homo sapiens) (Q14680 whole entry, looked up, the tested form may be a part): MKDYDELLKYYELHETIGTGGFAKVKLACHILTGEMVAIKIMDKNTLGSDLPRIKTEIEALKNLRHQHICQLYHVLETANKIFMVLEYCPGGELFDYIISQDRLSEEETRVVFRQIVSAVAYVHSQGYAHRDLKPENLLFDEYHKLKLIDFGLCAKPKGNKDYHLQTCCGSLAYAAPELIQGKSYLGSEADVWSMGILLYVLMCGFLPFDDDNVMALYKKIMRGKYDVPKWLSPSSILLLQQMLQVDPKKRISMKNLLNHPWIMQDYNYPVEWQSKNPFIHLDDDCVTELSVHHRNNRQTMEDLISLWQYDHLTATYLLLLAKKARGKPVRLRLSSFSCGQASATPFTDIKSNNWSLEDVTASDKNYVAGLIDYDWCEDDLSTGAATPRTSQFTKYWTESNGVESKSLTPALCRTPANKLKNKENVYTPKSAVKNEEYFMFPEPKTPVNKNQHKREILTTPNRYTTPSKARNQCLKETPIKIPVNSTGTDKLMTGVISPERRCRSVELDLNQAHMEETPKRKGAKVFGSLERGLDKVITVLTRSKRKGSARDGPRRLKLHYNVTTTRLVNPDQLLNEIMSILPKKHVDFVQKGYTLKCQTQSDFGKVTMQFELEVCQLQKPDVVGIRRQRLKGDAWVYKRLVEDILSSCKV

[15] = biological target: Fibroblast growth factor receptor 3 (Homo sapiens) (UniProt P22607); assay: Inhibition of wild-type human partial length FGFR3 (R442 to S771 residues) expressed in bacterial expression system assessed as residual activity at 1 uM by Kinomescan method relative to control
[16] = biological target: Serine/threonine-protein kinase PAK 5 (Homo sapiens) (UniProt Q9P286); assay: Inhibition of PAK5 (unknown origin) assessed as residual activity at 1 uM by Kinomescan method relative to control
Chain of Serine/threonine-protein kinase PAK 5 (Homo sapiens) (Q9P286 whole entry, looked up): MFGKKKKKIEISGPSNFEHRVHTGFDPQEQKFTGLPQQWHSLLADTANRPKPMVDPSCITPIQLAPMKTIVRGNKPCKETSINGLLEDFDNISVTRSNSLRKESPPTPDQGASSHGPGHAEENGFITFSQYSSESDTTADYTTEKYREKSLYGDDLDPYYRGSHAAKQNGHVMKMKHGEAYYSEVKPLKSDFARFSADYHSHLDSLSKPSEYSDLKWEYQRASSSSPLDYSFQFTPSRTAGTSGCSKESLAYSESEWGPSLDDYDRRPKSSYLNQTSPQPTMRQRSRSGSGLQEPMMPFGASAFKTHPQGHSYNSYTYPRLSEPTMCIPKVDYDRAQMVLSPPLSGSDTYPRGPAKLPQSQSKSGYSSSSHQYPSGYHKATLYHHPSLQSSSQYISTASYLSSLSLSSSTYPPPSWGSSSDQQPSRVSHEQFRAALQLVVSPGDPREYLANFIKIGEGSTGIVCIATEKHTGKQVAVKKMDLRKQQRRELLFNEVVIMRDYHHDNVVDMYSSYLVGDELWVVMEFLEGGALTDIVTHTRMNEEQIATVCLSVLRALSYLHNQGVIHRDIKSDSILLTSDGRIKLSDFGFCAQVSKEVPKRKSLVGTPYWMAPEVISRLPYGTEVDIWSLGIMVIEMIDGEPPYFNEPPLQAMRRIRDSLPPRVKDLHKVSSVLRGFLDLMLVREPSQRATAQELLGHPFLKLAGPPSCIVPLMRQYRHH

[17] = species on record: Homo sapiens; assay: Inhibition of PKA (unknown origin) assessed as residual activity at 1 uM by Kinomescan method relative to control
[18] = biological target: Mitogen-activated protein kinase kinase kinase 5 (Homo sapiens) (UniProt Q99683); assay: Inhibition of wild-type human partial length ASK1 (E648 to S964 residues) expressed in bacterial expression system assessed as residual activity at 1 uM by Kinomescan method relative to control
[19] = biological target: Serine/threonine-protein kinase tousled-like 2 (Homo sapiens) (UniProt Q86UE8); assay: Inhibition of wild-type human partial length TLK2 (E424 to N749 residues) expressed in bacterial expression system assessed as residual activity at 1 uM by Kinomescan method relative to control
[20] = biological target: Serine/threonine-protein kinase pim-2 (Homo sapiens) (UniProt Q9P1W9); assay: Inhibition of wild-type human partial length PIM2 (M1 to E291 residues) expressed in bacterial expression system assessed as residual activity at 1 uM by Kinomescan method relative to control
[21] = biological target: ALK tyrosine kinase receptor (Homo sapiens) (UniProt Q9UM73); assay: Inhibition of wild-type human partial length ALK (I1088 to E1409 residues) expressed in mammalian expression system assessed as residual activity at 1 uM by Kinomescan method relative to control
[22] = biological target: CDK3/Cyclin E (Homo sapiens) (UniProt P24864+Q00526); assay: Inhibition of wild-type human full length CDK3 (M1 to H305 residues)/Cyclin E expressed in bacterial expression system at 1 uM by Kinomescan method; parameters: scale not given: the % may be the effect or the level left
[23] = biological target: CDK2/Cyclin A2 (Homo sapiens) (UniProt P24941+P20248); assay: Inhibition of wild-type human full length CDK2 (M1 to L298 residues)/Cyclin A expressed in bacterial expression system assessed as residual activity at 1 uM by Kinomescan method relative to control
[24] = biological target: Serine/threonine-protein kinase TAO3 (Homo sapiens) (UniProt Q9H2K8); assay: Inhibition of wild-type human partial length TAOK3 (M1 to T316 residues) expressed in mammalian expression system assessed as residual activity at 1 uM by Kinomescan method relative to control
[25] = biological target: CDC7/DBF4 (Cell division cycle 7-related protein kinase/Activator of S phase kinase) (Homo sapiens) (UniProt Q9UBU7+O00311); assay: Inhibition of CDC7/DBF4 (unknown origin) assessed as residual activity at 1 uM by Kinomescan method relative to control; format: protein-complex assay
[26] = biological target: MAP kinase-activated protein kinase 3 (Homo sapiens) (UniProt Q16644); assay: Inhibition of human MAPKAPK3 assessed as residual activity at 1 uM by Kinomescan method relative to control
Chain of MAP kinase-activated protein kinase 3 (Homo sapiens) (Q16644 whole entry, looked up, the tested form may be a part): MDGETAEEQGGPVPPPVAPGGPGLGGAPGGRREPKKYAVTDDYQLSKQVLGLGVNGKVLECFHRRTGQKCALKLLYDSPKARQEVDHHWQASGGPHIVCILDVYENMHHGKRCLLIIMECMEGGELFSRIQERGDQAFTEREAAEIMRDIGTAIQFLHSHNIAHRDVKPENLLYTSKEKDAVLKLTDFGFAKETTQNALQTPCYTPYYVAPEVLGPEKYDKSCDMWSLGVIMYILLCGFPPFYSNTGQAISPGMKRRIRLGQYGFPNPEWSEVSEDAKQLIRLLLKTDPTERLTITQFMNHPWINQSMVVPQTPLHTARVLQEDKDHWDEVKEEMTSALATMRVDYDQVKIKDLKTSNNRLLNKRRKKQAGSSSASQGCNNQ

[27] = biological target: PAS domain-containing serine/threonine-protein kinase (Homo sapiens) (UniProt Q96RG2); assay: Inhibition of wild-type human partial length PASK (E942 to G1265 residues) expressed in mammalian expression system assessed as residual activity at 1 uM by Kinomescan method relative to control

`CCOc1nc(Nc2ccc(C(=O)N3CCOCC3)cc2OC)nc2[nH]ccc12` gave an Activity [1] of 98.7%, an Activity [2] of 87.5% and an Activity [3] of 50%. The Activity [4] was 95.7%, the Activity [5] was 96.3% and the Activity [6] was 96.5%. For the same compound, the Activity [7] was 99%, the Activity [8] was 104% and the Activity [9] was 100%. The Activity [10] was 90.4%, the Activity [11] was 106% and the Activity [12] was 99.8%. For the same compound, the Activity [13] was 98.8%, the Activity [14] was 97.9% and the Activity [15] was 103%. It also gave an Activity [16] of 105%, an Activity [17] of 103% and an Activity [18] of 92.2%. It also gave an Activity [19] of 92.5%, an Activity [20] of 94.7% and an Activity [21] of 7.52%. The Activity [22] was 87.7%, the Activity [23] was 94.9% and the Activity [24] was 97.8%. It also gave an Activity [25] of 102%, an Activity [26] of 101% and an Activity [27] of 98.4%.
